Publication PMC8865417, “Receptor Interaction Profiles of 4-Alkoxy-3,5-Dimethoxy-Phenethylamines (Mescaline Derivatives) and Related Amphetamines” (Frontiers in Pharmacology, 2022)
Where two headings read alike, the source gives them in different places.

How the values were obtained:
h5-HT2A receptor [1] = biological target: T1, h5-HT2A receptor (Homo sapiens, UniProt P28223); conditions: read-out: h5-HT2A Receptor binding Ki ± SD; cited from earlier work
T1 construct: expressed in transfected cells; host or cells: HEK 293 cells (membrane preparations)
T1 sequence (P28223 whole entry): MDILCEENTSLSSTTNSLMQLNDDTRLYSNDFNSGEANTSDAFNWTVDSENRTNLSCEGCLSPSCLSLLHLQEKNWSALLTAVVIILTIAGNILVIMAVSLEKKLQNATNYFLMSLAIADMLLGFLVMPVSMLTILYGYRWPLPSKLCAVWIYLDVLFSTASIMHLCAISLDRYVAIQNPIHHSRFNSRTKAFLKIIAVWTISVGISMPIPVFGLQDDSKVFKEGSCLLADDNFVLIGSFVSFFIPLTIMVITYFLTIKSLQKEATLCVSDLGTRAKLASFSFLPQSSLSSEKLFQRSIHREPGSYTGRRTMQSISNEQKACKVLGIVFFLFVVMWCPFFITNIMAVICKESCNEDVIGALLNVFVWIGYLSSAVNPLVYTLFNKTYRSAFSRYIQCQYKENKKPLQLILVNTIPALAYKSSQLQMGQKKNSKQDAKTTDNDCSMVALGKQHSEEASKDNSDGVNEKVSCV

hSERT = biological target: T2, hSERT (Homo sapiens, UniProt P31645); test: Radioligand binding at hSERT ([3H]citalopram)
T2 construct: expressed in transfected cells; host or cells: HEK 293 cells (membrane preparations)
T2 sequence (P31645 whole entry): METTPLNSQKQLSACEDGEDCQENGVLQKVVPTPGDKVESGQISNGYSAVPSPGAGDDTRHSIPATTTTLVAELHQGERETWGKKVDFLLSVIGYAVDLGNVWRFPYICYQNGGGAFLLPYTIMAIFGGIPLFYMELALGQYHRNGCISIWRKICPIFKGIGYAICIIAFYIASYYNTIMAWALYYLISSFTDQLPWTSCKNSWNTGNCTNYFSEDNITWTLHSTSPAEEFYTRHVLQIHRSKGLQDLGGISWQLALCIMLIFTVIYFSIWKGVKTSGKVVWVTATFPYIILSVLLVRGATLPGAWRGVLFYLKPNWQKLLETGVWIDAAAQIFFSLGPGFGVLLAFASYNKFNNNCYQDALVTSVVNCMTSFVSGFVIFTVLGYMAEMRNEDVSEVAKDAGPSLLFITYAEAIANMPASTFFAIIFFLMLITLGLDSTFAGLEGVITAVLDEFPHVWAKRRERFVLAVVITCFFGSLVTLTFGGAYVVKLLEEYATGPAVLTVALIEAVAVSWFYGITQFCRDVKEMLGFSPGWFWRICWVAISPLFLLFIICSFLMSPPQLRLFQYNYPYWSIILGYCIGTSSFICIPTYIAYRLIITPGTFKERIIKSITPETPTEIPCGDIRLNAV

human 5-HT2A receptor [2] = biological target: T3, human 5-HT2A receptor (Homo sapiens, UniProt P28223); parameters: expressed in transfected cells; host or cells: NIH-3T3 cells (mouse embryonic fibroblasts); conditions: read-out: h5-HT2A Activation potency EC50 ± SD; mescaline; ref Rickli et al. (2016); cited from earlier work
T3 sequence (P28223 whole entry): as the sequence (P28223 whole entry) above

hNET = biological target: T4, hNET (Homo sapiens, UniProt P23975); test: Radioligand binding at hNET (N-methyl-[3H]nisoxetine)
T4 construct: expressed in transfected cells; host or cells: HEK 293 cells (membrane preparations)
T4 sequence (P23975 whole entry): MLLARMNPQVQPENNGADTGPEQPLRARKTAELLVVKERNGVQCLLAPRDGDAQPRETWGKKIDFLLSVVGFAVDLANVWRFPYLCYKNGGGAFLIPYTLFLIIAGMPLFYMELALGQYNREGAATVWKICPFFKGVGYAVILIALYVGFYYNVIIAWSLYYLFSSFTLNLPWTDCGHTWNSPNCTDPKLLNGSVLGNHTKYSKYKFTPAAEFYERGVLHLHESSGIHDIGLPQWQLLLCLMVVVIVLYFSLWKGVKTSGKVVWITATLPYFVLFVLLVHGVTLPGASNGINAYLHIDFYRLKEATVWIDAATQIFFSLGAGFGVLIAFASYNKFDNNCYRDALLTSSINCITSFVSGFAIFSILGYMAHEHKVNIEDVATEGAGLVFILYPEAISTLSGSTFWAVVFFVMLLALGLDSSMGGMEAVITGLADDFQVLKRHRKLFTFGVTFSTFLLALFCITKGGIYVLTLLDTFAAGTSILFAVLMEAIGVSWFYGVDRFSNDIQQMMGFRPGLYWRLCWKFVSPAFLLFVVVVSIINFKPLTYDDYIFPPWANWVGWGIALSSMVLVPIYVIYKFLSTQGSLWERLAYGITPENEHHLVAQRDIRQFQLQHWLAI

humans = conditions: ref Shulgin and Shulgin 1991, cited from earlier work; for Duration of action: humans; for Duration of action / Human oral dose: Shulgin and Shulgin 1997, Trachsel et al., 2013; for Human oral dose: psychedelic dose in humans
h5-HT2A receptor [3] = biological target: T1, h5-HT2A receptor; test: Radioligand binding at h5-HT2A receptor ([3H]ketanserin); conditions: for Ki: h5-HT2A Receptor binding Ki ± SD, [3H]ketanserin, mean ± SD
h5-HT1A receptor = biological target: T5, h5-HT1A receptor (Homo sapiens, UniProt P08908); test: Radioligand binding at h5-HT1A receptor ([3H]8-OH-DPAT)
T5 construct: expressed in transfected cells; host or cells: HEK 293 cells (membrane preparations)
T5 sequence (P08908 1-422): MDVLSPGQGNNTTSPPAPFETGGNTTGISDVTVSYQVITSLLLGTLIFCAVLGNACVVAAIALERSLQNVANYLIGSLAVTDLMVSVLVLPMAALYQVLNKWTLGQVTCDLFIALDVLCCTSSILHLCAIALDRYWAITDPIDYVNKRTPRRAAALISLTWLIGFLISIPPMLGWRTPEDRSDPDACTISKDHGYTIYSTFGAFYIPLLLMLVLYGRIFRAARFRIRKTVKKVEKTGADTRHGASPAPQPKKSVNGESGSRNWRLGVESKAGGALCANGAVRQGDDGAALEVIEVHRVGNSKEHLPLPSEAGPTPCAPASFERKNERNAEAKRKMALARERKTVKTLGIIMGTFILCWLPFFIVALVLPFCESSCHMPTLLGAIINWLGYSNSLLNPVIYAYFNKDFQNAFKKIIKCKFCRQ

[4] = biological target: T6, dopaminergic hD2 receptor (Homo sapiens, UniProt P14416); test: Radioligand binding at dopaminergic hD2 receptor ([3H]spiperone)
T6 construct: expressed in transfected cells; host or cells: HEK 293 cells (membrane preparations)
T6 sequence (P14416 whole entry): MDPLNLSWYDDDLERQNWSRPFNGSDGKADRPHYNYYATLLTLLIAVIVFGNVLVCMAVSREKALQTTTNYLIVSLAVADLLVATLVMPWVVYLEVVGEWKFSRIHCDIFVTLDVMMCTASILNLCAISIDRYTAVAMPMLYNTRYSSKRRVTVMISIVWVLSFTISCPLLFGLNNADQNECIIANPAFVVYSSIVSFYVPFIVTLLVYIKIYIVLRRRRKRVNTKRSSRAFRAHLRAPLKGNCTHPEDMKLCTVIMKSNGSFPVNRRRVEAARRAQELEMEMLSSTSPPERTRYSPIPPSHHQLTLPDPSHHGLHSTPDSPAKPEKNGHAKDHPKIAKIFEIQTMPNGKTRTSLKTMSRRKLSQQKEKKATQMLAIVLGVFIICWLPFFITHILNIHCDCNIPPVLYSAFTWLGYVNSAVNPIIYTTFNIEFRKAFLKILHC

hα2A adrenergic receptor = biological target: T7, hα2A adrenergic receptor (Homo sapiens, UniProt P08913); test: Radioligand binding at hα2A adrenergic receptor ([3H]rauwolscine)
T7 construct: expressed in transfected cells; host or cells: Chinese hamster lung cells (membrane preparations)
T7 sequence (P08913 1-465): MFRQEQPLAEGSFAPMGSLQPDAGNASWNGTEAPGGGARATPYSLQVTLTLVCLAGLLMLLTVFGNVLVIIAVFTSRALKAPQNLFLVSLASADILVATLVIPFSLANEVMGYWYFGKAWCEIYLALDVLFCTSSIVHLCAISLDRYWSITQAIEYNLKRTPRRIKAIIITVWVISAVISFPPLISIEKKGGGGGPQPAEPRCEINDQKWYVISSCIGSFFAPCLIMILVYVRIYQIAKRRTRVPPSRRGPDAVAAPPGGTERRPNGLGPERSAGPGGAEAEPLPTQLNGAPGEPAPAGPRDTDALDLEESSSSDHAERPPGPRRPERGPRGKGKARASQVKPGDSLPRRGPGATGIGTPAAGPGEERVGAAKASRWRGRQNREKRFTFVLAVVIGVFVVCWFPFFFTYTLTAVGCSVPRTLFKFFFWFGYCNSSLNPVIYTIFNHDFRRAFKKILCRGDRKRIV

mouse TAAR1 = biological target: T8, mouse TAAR1 (Mus musculus, UniProt Q923Y8); test: Radioligand binding at mouse TAAR1 ([3H]RO5166017)
T8 construct: expressed in transfected cells; host or cells: HEK 293 cells (membrane preparations)
T8 sequence (Q923Y8 whole entry): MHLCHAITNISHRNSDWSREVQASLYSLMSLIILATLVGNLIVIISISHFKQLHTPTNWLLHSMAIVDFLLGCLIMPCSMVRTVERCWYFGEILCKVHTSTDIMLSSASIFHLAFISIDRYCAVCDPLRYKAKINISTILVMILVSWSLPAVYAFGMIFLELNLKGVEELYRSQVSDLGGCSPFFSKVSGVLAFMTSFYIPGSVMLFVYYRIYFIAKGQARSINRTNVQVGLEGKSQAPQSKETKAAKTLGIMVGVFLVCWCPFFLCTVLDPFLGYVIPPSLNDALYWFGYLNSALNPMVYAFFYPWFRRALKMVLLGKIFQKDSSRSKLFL

hDAT = biological target: T9, hDAT (Homo sapiens, UniProt Q01959); test: Radioligand binding at hDAT ([3H]WIN35,428)
T9 construct: expressed in transfected cells; host or cells: HEK 293 cells (membrane preparations)
T9 sequence (Q01959 whole entry): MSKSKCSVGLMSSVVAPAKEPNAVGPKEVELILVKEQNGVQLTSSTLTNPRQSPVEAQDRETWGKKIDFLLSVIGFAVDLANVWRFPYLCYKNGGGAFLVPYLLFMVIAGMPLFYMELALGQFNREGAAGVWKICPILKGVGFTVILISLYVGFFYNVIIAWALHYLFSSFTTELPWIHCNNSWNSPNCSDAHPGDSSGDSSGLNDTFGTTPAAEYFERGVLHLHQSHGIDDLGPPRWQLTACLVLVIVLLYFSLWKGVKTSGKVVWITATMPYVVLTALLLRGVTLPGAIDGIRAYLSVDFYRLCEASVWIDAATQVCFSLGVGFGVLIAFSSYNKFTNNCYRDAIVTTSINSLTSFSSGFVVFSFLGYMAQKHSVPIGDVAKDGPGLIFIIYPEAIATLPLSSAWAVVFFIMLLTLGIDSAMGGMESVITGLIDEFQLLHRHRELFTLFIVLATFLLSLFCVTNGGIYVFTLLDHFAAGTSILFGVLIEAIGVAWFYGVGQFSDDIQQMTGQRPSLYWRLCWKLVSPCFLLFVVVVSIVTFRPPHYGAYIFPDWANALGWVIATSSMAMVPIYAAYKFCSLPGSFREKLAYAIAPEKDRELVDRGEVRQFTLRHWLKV

human 5-HT2B receptor = human 5-HT2B receptor (Homo sapiens, UniProt P41595); conditions: for EC50: h5-HT2B Activation potency EC50 ± SD, HEK 293 cells, calcium FLIPR, mean ± SD
Sequence of human 5-HT2B receptor (P41595 whole entry): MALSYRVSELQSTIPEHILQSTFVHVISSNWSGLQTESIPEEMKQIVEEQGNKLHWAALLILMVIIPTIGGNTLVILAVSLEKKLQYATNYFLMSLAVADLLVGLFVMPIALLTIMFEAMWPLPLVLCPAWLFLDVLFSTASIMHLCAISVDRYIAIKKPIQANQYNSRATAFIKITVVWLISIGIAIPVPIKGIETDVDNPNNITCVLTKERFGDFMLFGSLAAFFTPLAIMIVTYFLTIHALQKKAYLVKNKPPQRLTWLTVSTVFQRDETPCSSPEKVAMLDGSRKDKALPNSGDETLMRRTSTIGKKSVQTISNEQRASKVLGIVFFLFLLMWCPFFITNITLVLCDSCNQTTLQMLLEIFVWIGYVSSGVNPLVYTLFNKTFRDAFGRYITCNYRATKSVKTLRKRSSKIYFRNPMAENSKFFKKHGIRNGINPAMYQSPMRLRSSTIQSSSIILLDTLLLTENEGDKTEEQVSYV

h5-HT2C receptor = biological target: T10, h5-HT2C receptor (Homo sapiens, UniProt P28335); test: biochemical; assay type: binding; conditions: [3H]mesulergine; mean ± SD; read-out: h5-HT2C Receptor binding Ki ± SD
T10 construct: expressed in transfected cells; host or cells: HEK 293 cells (membrane preparations)
T10 sequence (P28335 33-458): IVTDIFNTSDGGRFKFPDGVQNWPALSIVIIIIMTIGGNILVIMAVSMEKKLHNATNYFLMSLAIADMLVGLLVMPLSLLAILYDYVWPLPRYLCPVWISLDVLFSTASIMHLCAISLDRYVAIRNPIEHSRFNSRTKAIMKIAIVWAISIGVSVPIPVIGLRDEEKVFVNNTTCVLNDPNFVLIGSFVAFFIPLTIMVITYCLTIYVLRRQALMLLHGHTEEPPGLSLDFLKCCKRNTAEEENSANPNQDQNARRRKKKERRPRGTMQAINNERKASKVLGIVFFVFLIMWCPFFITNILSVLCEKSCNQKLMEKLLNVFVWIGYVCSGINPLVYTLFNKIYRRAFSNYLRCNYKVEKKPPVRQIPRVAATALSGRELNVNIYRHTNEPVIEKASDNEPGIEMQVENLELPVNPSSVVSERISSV

rat TAAR1 = biological target: T11, rat TAAR1 (Rattus norvegicus, UniProt Q923Y9); test: Radioligand binding at rat TAAR1 ([3H]RO5166017)
T11 construct: expressed in transfected cells; host or cells: HEK 293 cells (membrane preparations)
T11 sequence (Q923Y9 whole entry): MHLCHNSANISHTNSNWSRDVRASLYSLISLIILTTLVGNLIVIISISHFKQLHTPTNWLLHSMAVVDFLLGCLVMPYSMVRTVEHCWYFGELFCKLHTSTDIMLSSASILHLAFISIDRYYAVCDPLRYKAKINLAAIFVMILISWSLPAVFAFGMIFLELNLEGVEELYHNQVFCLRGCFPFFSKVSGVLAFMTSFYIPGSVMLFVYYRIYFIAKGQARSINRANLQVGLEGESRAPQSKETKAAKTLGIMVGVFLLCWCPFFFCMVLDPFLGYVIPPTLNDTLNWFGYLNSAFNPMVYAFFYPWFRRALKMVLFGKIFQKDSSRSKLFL

hα1A adrenergic receptor = biological target: T12, hα1A adrenergic receptor (Homo sapiens, UniProt P35348); test: Radioligand binding at hα1A adrenergic receptor ([3H]prazosin); conditions: mean ± SD
T12 construct: expressed in transfected cells; host or cells: Chinese hamster ovary cells (membrane preparations)
T12 sequence (P35348 1-466): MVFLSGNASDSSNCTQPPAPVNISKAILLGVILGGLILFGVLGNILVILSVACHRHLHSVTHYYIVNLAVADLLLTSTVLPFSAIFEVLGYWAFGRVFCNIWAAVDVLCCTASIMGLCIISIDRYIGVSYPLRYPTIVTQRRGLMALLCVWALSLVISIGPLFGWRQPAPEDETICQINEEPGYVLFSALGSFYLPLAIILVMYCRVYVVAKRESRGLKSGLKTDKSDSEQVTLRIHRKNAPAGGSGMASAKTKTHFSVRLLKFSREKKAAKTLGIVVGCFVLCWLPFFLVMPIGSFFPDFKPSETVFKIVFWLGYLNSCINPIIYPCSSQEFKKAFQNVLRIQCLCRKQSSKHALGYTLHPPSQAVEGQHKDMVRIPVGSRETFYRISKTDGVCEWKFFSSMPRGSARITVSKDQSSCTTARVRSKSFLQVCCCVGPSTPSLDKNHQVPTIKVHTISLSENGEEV

human TAAR1 = biological target: T13, human TAAR1 (Homo sapiens, UniProt Q96RJ0); test: Activity at the human TAAR1 (cAMP assay, HEK 293 cells); assay type: cell-based
T13 construct: expressed in transfected cells; host or cells: HEK 293 cells
T13 sequence (Q96RJ0 1-339): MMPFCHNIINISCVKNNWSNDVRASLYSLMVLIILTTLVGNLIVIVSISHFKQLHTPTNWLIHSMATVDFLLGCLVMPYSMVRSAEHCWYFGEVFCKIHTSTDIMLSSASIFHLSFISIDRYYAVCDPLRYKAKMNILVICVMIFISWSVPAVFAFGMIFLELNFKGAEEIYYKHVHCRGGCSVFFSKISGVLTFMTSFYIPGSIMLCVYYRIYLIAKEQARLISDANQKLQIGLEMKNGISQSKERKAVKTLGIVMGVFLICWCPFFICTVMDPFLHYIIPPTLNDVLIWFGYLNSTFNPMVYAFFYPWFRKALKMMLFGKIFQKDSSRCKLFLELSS
Experimental: Once 80–90% confluency was reached, the cells were collected by removing the medium, washing with PBS and then adding 5 ml of trypsin/EDTA solution for 5 min at 37°C. Next, 45 ml of medium was added and the entire mixture was transferred into a falcon tube. The tube was then centrifuged at room temperature for 3 min at 900 revolutions per minute (rpm). Next, the supernatant was removed in order to resuspend the remaining cell pellet in fresh medium to 5 × 10^5 cells/ml. Hundred microliter of the cells was transferred into a 96-well plate ([…]; BIOCOAT 6640, Becton Dickinson, Allschwil, Switzerland) and incubated for 20 h at 37°C.
For the cAMP assay, the aspirated medium was replaced with 50 μl PBS without Ca^2+ and Mg^2+ ions. Using snap inversion, the PBS was extracted and the plate was gently tapped against tissue. Next, 90 μl of Krebs-Ringer Bicarbonate buffer (KRB, Sigma-Aldrich) containing 1 mM IBMX was added and incubated for 60 min at 37°C and 5% CO2/95% air. Each test compound was examined in duplicate in a concentration range between 300 pM and 30 μM. A standard curve with a range of cAMP concentrations (0.13 nM–10 μM) was created for each 96-well plate. Each experiment was accompanied with a reference plate that included RO5256390, β-phenylethylamine and p-tyramine. The cells were exposed to either 30 μl of compound solution, 30 μl of β-phenylethylamine (as maximal response), or a basal control in PBS (containing 1 mM IBMX) for 40 min at 37°C. Next, under forceful shaking using black lids, the cells were exposed to 50 μl of 3× detection mix solution (composed of Ru-cAMP Alexa700 anti-cAMP antibody and lysis buffer) for 120 min at room temperature. Using the NanoScan reader (Innovate Optische Messtechnik, Berlin, Germany; 456 nm excitation wavelength; 630 and 700 nm emission wavelengths), the fluorescence was examined and the FRET signal was determined using the following equation; FRET (700 nm)- P × FRET (630 nm), where P = Ru (700 nm)/Ru (630 nm).

human 5-HT2A receptor [5] = biological target: T3, human 5-HT2A receptor; conditions: for Emax: NIH3T3, read-out: h5-HT2A Activation efficacy max ± SD, relative to 5-HT = 100%
head twitch response = test system: head twitch response; parameters: method as in Halberstadt et al. (2019); conditions: ref Halberstadt et al. (2019); cited from earlier work

COc1cc(CCN)c(OC)cc1Br [2C-B]
Ki (h5-HT2A receptor [1]): 0.0069 ± 0.0018 µM

COc1cc(CCN)cc(OC)c1OC [compound 5, 3,4,5-trimethoxyphenethylamine]
Ki (hSERT): > 7.5 µM
EC50 (human 5-HT2A receptor [2]): 10 µM
Ki (hNET): > 9.7 µM
Duration of action (humans; listed as mescaline): 8 to 12 h
Human oral dose (humans): 180 to 360 mg
Psychedelic / active dose in humans (humans): 180 to 360 mg
Ki (h5-HT2A receptor [3]): 9.4 µM
Ki (h5-HT1A receptor): 6.7 µM
Ki [4]: > 6.3 µM
Ki (hα2A adrenergic receptor): 2 µM
Ki (mouse TAAR1): > 4.2 µM
Ki (hDAT): > 8.5 µM
EC50 (human 5-HT2B receptor): > 10 µM
Ki (h5-HT2C receptor): 9.9 µM
Ki (rat TAAR1): 3 µM
Ki (hα1A adrenergic receptor): > 8.7 µM

COc1cc(CC(C)N)cc(OC)c1OC (stereo not drawn) [compound 6, 3,4,5-trimethoxyamphetamine]
Ki (hSERT): > 7.5 µM
EC50 (human TAAR1): > 10 µM
Ki (hNET): > 9.7 µM
Duration of action (humans): 6 to 8 h
Human oral dose (humans; listed as TMA): 100 to 250 mg
Psychedelic / active dose in humans (humans): 100 to 200 mg
Ki (h5-HT2A receptor [3]): > 12 µM
Ki (h5-HT1A receptor): > 5.6 µM
Ki [4]: > 6.3 µM
Ki (hα2A adrenergic receptor): 4.03 µM
Ki (mouse TAAR1): 1.8 µM
EC50 (human 5-HT2A receptor [5]): 1.7 ± 0.4 µM
Emax (human 5-HT2A receptor [5]): 40 to 73%
Ki (hDAT): > 8.5 µM
EC50 (human 5-HT2B receptor): > 10 µM
Ki (rat TAAR1): 3.2 µM
Ki (hα1A adrenergic receptor): > 8.7 µM

CCOc1c(OC)cc(CC(C)N)cc1OC (stereo not drawn) [compound 21, 3,5-dimethoxy-4-ethoxyamphetamine]
Ki (hSERT): > 7.5 µM
Ki (hNET): > 9.7 µM
Selectivity 5-HT2A vs. 5-HT2C (h5-HT2A receptor [3]; binding ratio): 1.3
Ki (h5-HT2A receptor [3]): 3.7 µM
Ki (h5-HT1A receptor): > 5.6 µM
Ki [4]: > 6.3 µM
Ki (hα2A adrenergic receptor): > 5.1 µM
Ki (mouse TAAR1): > 4.2 µM
Head twitch response (head twitch response): induced a head twitch response with almost identical potency
EC50 (human 5-HT2A receptor [5]): 0.16 ± 0.05 µM
Emax (human 5-HT2A receptor [5]): 86 to 102%
Ki (hDAT): > 8.5 µM
Emax (human 5-HT2B receptor; HEK293, read-out: h5-HT2B Activation efficacy max ± SD, relative to 5-HT = 100%): 18 to 29%
EC50 (human 5-HT2B receptor): 0.095 ± 0.13 µM
Ki (h5-HT2C receptor): 4.9 µM
Ki (rat TAAR1): > 4.7 µM
Ki (hα1A adrenergic receptor): > 8.7 µM
